This passage reports MIC results from ChEMBL document CHEMBL2390897, “3-Anhydro-6-hydroxy-ophiobolin A, a new sesterterpene inhibiting the growth of methicillin-resistant Staphylococcus aureus and inducing the cell death by apoptosis on K562, from the phytopathogenic fungus Bipolaris oryzae” (Bioorg Med Chem Lett, 2013).

≈ marks a conversion by molar mass, not a printed value. Some results are limits rather than exact numbers.

The test system of the assay is Mycobacterium tuberculosis. The experiment in a line: Antimicrobial activity against Bacille Calmette-Guerin. The settings on record: variant bovis BCG. The assay is classed as functional.

Compound `CC(C)=C[C@H]1C[C@H](C)[C@]2(CC[C@]3(C)C[C@@H]4C(C)=CC(=O)[C@H]4/C(C=O)=C\C[C@H]32)O1` [3-ANHYDRO-6-EPI-OPHIOBOLIN A] gave an MIC of more than 100 µg/mL.
On to `CC(C)=C[C@H]1C[C@H](C)[C@]2(CC[C@]3(C)C[C@@H]4C(C)=CC(=O)[C@@H]4/C(C=O)=C\C[C@H]32)O1`, for which the MIC was more than 100 µg/mL.
`NNC(=O)c1ccncc1` [ISONIAZID] came in with an MIC of 0.05 µg/mL (≈ 0.365 µM).
Compound `CC(C)=C[C@H]1C[C@H](C)[C@]2(CC[C@]3(C)C[C@@H]4C(C)=CC(=O)[C@]4(O)/C(C=O)=C\C[C@H]32)O1` showed an MIC of 12.5 µg/mL (≈ 31.4 µM).

Usually MIC stands for the smallest concentration in the dilution series that meets the test's criterion for growth inhibition. Low readings indicate a more susceptible organism, high ones a less susceptible organism.
